Data as given in paper PMC12162873, “Modulating phosphatase DUSP22 with BML-260 ameliorates skeletal muscle wasting via Akt independent JNK-FOXO3a repression” (EMBO Molecular Medicine, 2025).

Legend:
[1] = system: TA muscle of C57BL/6 mice; assay: Whole genome RNA-Seq of TA muscle of geriatric mice; assay type: in vivo, mouse; conditions: 5 mg/kg IP every 24 h for 4 weeks
Description: Figure 8 Whole genome RNA Seq analysis of DUSP22 pharmacological targeting in geriatric mouse TA muscle. (A) Principal component analysis of gene expression variance in the vehicle treated (Con) and BML-260 treated groups (n = 3). (B) Volcano plot of differentially expressed genes. Selected genes linked to FOXO3a signaling are indicated. (C) Expression analysis of genes related to FOXO3a signaling measured by overall TPM fold change. The control was set as the baseline value of 1. A value of 2 would indicate a 2-fold increase, and 0.5 would indicates a 2-fold decrease. (D) Expression of selected genes linked to FOXO3a signaling as normalized counts from the raw read. (E) Expression of the exercise-induced myokine musclin (Ostn). (F) Gene ontology (GO) analysis of the […] muscle cell differentiation and muscle fiber development. Also shown are Six1 and Six4 (which specify fast twitch myofiber development), Ostn and fast myosin (MYH4; the predominant myosin type in the fast-twitch TA muscle). Box plots represent the distribution of Fbxo32, Trim63, Fbxo30, Gadd45a, Ctsl, Bnip3, Ostn expression levels. The center line indicates the median (50th percentile, Q2), representing the middle value of the dataset. The box bounds correspond to the interquartile range (IQR), extending from the 25th percentile (Q1, lower bound) to the 75th percentile (Q3, upper bound). Whiskers extend to the smallest and largest values within 1.5 × IQR from Q1 and Q3, representing the minimum (lower whisker) and maximum (upper whisker) values within this range. […] Error bars represent the standard error of the mean (SEM). Source data are available online for this figure.
RNA samples were harvested from the TA muscles of 24–26-month-old male C57BL/6 mice treated as follows: (1) vehicle alone (5% DMSO + 5% tween 80) and (2) 5 mg/kg BML-260. Mice were treated by IP delivery every 24 h for 4 weeks (n = 3 per group). RNA-Seq was provided by Macrogen, Republic of Korea. Prior to the commencement of sequencing, QC was carried out using FastQC v0.11.7 (http://www.bioinformatics.babraham.ac.uk/projects/fastqc/). Illumina paired ends or single ends in the sequenced samples were trimmed using Trimmomatic 0.38 with various parameters (http://www.usadellab.org/cms/?page=trimmomatic). The sequences of the samples were mapped and analyzed using HISAT2 version 2.1,0, Bowtie2 2.3.4.1 (https://ccb.jhu.edu/software/hisat2/index.shtml). Potential transcripts and multiple splice variants were assembled using StringTie version 2.1.3b (https://ccb.jhu.edu/software/stringtie/). The normalized sample counts were generated using DESeq2, which was also used for normalization, visualization, and differential analysis. PCA was performed using normalized sample counts. The “apeglm” type was used to calculate shrink log2 fold changes.

[2] = system: C57BL/6J mice; assay: Dex treatment mouse model of skeletal muscle atrophy, BML-260 treatment; assay type: in vivo; conditions: TA muscle of C57BL/6 mice treated with Dex, Vehicle average = 1, n = 4

**Q.** What does the source list for O=C(O)c1ccc(N2C(=O)C(=Cc3ccccc3)SC2=S)cc1 (stereo in doubt) [BML-260]?
**A.** expression of Six1 and Six4 [1]: upregulated; expression of fast myosin (MYH4) [1]: increased; expression of musclin (OSTN) [1]: upregulated; genes linked to FOXO3a signaling (including atrogin-1 and MuRF-1) [1]: downregulated; genes linked to the PI3K-Akt pathway [1]: downregulated; number of differentially expressed genes (DEGs) ([1]; versus vehicle): 350

**Q.** For C[C@@H]1C[C@H]2[C@@H]3CCC4=CC(=O)C=C[C@]4(C)[C@@]3(F)[C@@H](O)C[C@]2(C)[C@@]1(O)C(=O)CO [Dex, dexamethasone], which “DUSP22 expression, qPCR, Average” value [2] is on record?
**A.** 1.655
